From US12447191B2, “Topical application of polypeptide in the treatment of skin damage” (WUHAN YICHENG BIOTECHNOLOGY CO., LTD., priority 2020, dated 2025) come the findings set out here.

Assay [1] relates to deep II degree burn (scald wound). As to the kind of experiment: Animal Experiment 1: rat scald (deep II degree burn) model. Format: in vivo, SD rats. The following applies: after 14 days of treatment; smeared twice a day on scald wound; other side untreated control. The method, then: The following will verify the therapeutic function of the medicament prepared in embodiments 1 to 3 on trauma and burns through experiments. The pharmacodynamic effects of polypeptide drugs were evaluated by establishing a rat burn model or a rat trauma model. Experimental Purpose: to study the therapeutic effect of polypeptide drug of the invention on scald. Experimental Animals: SD rats, half male and half female, 200 g±10 g. The Modeling Scheme: the rats' back were depilated with 10% barium sulfide the day before the experiment, and anesthetized by intraperitoneal injection before scalding. The rat models were made with a constant temperature and pressure scald apparatus. After scalding, 5 ml lactate Ringer's solution was intraperitoneally injected immediately to prevent shock. The criteria for successful modeling: disappearance of local epidermis; expansion of blood vessels in epidermis, dermis and subcutaneous tissue; edema of subcutaneous tissue; infiltration of acute and chronic inflammatory cells in dermis and subcutaneous tissue; the above description is a deep II degree burn. Animal Grouping: 8 SD rats in total Ointment Group (Ointment prepared in embodiment 2): 4 rats, half male and half female, scalded on both sides of the body. After scalding, one side was administered, and the other side was used as control. […]

The test system of assay [2] is HaCAT cells. As to the kind of experiment: Cell Differentiation Experiment. Format: cell-based, human. The following applies: 10 μL polypeptide (10 mg/ml), 48 h. The method, then: 1. Cell Resuscitation: • (1) HaCAT cells (human immortalized epidermal cells, purchased from Wuhan University Cell Preservation Center, GDC106) are taken out of liquid nitrogen, quickly put into a 37° C. water bath, and gently shake the cryopreservation tube to dissolve the cryopreservation solution;
(2) After dissolution, the HaCAT cells were transferred to a centrifuge tube containing 5 ml of culture medium. The cells were collected by centrifugation, centrifuged at 1000 rmp at room temperature for 5 min, and the supernatant was discarded;
(3) The HaCAT cells were suspended in a complete medium containing 10% fetal bovine serum, inoculated into a culture dish, gently blown and mixed, and cultured at 37° C. and 5% CO2 saturated humidity.
When the cell density reaches 80%, the HaCAT cells will be subcultured:
(1) Discard the culture medium and wash it once with PBS;
(2) Add 1-2 ml 0.25% trypsin to digest the cells. Observe under the microscope. Digest for 1-2 min. It can be seen that the cells are separated from each other and become round, that is, the digestion is completed;
(3) Quickly discard the trypsin, add the complete culture medium, blow the cells to make a single cell suspension, pass the passage in a ratio of 1:3, and expand the culture under 37° C. and 5% CO2 saturated humidity. […]

No end group written: not given here.

Regarding MPYSTELIFYIEMDP [polypeptide], the “Photo observation of wound healing” value in assay [1] is listed as “can obviously promote the wound healing”. Besides, the “Differentiation of HaCAT cells (morphology on photos)” value in assay [2] is on record as “some cells are differentiated”.
